Experiment: Diffusion of CBD from transdermal devices through a human cadaver epidermis, Franz Diffusion Cell method
Type: in vitro ADME
Settings: Example 2, FIG. 4; reservoir device, 5 percent CBD in ethanol/water 70/30; with hydrophilic porous membrane 24 versus membrane omitted
Protocol: The effects of using a hydrophobic, porous membrane versus a hydrophilic, porous membrane (such as membrane 24) in reservoir transdermal device 20 are studied in this example. […] The backing 22 is an occlusive backing film (PE/PET from 3M). Hydroxy ethyl cellulose is added to the solution to yield a thixotropic preparation 27. A volume of 300 microliters of the preparation is placed in the reservoir 26.
The skin adhesive 30 is a BIO PSA 7-4301 adhesive coated to a thickness of 15 g/m^2 on side 36 of membrane 24. An overlay adhesive patch is placed over the reservoir which forms an island in the middle. The overlay assures adhesion of the reservoir to the skin. The device 20 is contacted with a human cadaver epidermis, and diffusion through the epidermis is measured using the Franz Diffusion Cell method.
In a first run, membrane 24 is a Lydall® Evopor™ 5E02A, hydrophilic, microporous membrane (of 0.2 micrometers pore size). […]
The device 20 is contacted with a human cadaver epidermis, and diffusion through the epidermis is measured using the Franz Diffusion Cell method. […]
This example is conducted using three reservoir transdermal devices such as those of Example 1, with each having the hydrophilic, porous membrane described therein. […] Diffusion through a human cadaver epidermis is measured using the Franz Diffusion Method. […]

C=C(C)[C@@H]1CCC(C)=C[C@H]1c1c(O)cc(CCCCC)cc1O [CBD, Cannabidiol]
permeability of CBD through the skin (cumulative flux versus time): the same regardless of whether the membrane 24 is provided

From patent US12364669B2, “Device and method for transdermal delivery of cannabidiol” (Remy Biosciences, Inc., priority 2020, dated 2025)
